The values that follow are results of earlier work, collected in patent US20250381202A1, “PRODRUG KIT FOR MULTI-PRONGED CHEMOTHERAPY” (priority 2022, published 2025).

Like-named read-outs stand apart in the source and are kept apart here.

For the data set the following is noted: in vivo tumor model, area under the curve until the drug concentration reaches zero.

Turning to `COc1cccc2c1C(=O)c1c(O)c3c(c(O)c1C2=O)C[C@@](O)(C(=O)CO)C[C@@H]3O[C@H]1C[C@H](N)[C@H](O)[C@H](C)O1` [doxorubicin, Doxorubicin], the AUC0-t is 80.9 µg·min/mL (In blood) and 33.4 µg·min/mL (Tumor Mean PK).
